The term IC50 denotes the concentration that gives 50% inhibition.

The source made the active and inactive calls.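 The calls were made as follows: active = compound flagged as a likely artifact in this counterscreen, with IC50 of 10 µM or lower; inactive = IC50 above 10 µM.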

In PubChem BioAssay AID720547 (The Scripps Research Institute Molecular Screening Center, 2013) one finds IC50 data, which are given here for 82 compounds.

In the experiment the test system is HEK293 Gal4-VP16 luciferase reporter counterscreen, luminescence. The experiment in a line: Gal4-VP16 luciferase reporter inhibitors, dose response, counter-screen for COUP-TFII inhibitor project, cell-based, luminescence, HEK293 (AID 720547).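 Also: potency for lowering the luciferase signal driven by Gal4-VP16.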 For orientation: A reporter such as luciferase makes a cellular process visible.
On to `Cc1nn(C)c(C)c1CN(C)S(=O)(=O)c1ccc2ccccc2c1`, for which the IC50 was > 85.4 µM (inactive). To `CCOC(=O)c1cnc(-n2nc(C)cc2C)nc1NC1CCCCC1` belongs 45.4 µM (inactive). Next, `COc1ccc(-n2cc(-c3ccc(C)cc3)[n+]3c2SCC3)cc1`: > 85.4 µM (inactive); `CN(C)c1cc[n+](CC(=O)c2ccc(-c3ccccc3)cc2)cc1`: > 85.4 µM (inactive). On to `N#CCSc1nnc(-c2sc3ccccc3c2Cl)o1`, for which the IC50 is 85.9 µM (inactive). Next, `Cc1c(Cl)cccc1NC(=O)N1CCCN(c2nc(-c3ccccc3)ns2)CC1`: > 85.4 µM (inactive). With `Cc1nc2c(-c3ccc(Cl)cc3)cnn2c(N)c1-c1ccc(F)cc1`, the IC50 was > 85.4 µM (inactive).

As for `Cc1nnsc1NC(=O)OCc1ccc(C(C)(C)C)cc1`, the IC50 is > 85.4 µM (inactive).

Consider `Cc1ccc(C(=O)NC2CCCc3c2cnn3-c2ccc(F)cc2F)cn1` (configuration not stated), for which the IC50 is > 85.4 µM (inactive). For `CCSc1nc2ccccc2n1C(=O)/C=C/c1ccc(OC)c(OC)c1`, the IC50 is 19.4 µM (inactive). To `NC(=O)c1ccsc1NC(=O)COC(=O)Cc1cccc2ccccc12` belongs > 85.4 µM (inactive); to `Cc1cccc2cc(-c3ccccc3)c(-c3ccccc3)c[n+]12`, > 85.4 µM (inactive). To `O=C(c1ccccc1)C1CCN(c2ncnc3sccc23)CC1` belongs > 85.5 µM (inactive); to `Cc1cccc(Nc2nc(NCc3ccco3)c3ccccc3n2)c1`, 53 µM (inactive). `Cc1ccc(S(=O)(=O)NCc2ccncc2)c(C)c1C`: the IC50 is > 85.5 µM (inactive).

In the case of `CCNc1nc(-c2sc(NC(=O)C(C)(C)C)nc2C)c(-n2cc(-c3ccccc3)nn2)s1`, the IC50 was 21.1 µM (inactive). On to `COc1ccccc1-[n+]1c(C)cc(/C=C2\Sc3ccccc3N2C)cc1C`, for which the IC50 is 27.8 µM (inactive). To `CC1=CC(=Cc2sc3ccccc3[n+]2C)C=C(C)O1` belongs 84.1 µM (inactive); to `O=S(=O)(NCC1CCCO1)c1ccc(-c2ccc(S(=O)(=O)NCC3CCCO3)cc2)cc1` (configuration not stated), > 85.4 µM (inactive); to `C[n+]1c2n(c3ccccc31)N=C(c1ccccc1)CS2`, > 85.5 µM (inactive). Next, `CCOc1ccc(-n2c(-c3ccccc3)c[n+]3c2CCCCC3)cc1`: > 85.4 µM (inactive); `Cc1ccc(-n2nc3c(=O)n(C(C)C(=O)NCc4ccccc4Cl)nc(C)c3c2C)cc1` (configuration not stated): 81.8 µM (inactive); `CCc1cc(C(=O)NC2CCCc3c2cnn3-c2cccc(C)c2C)n(C)n1` (configuration not stated): > 85.4 µM (inactive).

`CC[C@@H](O)C[C@H]1CCC[C@@]2(C[C@@H]3OC(=O)/C=C/[C@@](C)(O)[C@@H](O)[C@H](C)[C@@H](O)[C@H](OC4CCC(N(C)C)C(C)O4)[C@@H](O)[C@](C)(O)CCCCC/C=C/[C@@H]4CC(C)(C)O[C@@]4(O)C[C@H](O2)[C@H]3C)O1` (some centres not stated): the IC50 is 37 µM (inactive). Next, `c1ccc(C(Cc2nc(-c3ccncc3)no2)c2ccccc2)cc1`: > 85.4 µM (inactive). Next, `Cc1ccc(Cn2ncc3c(N4CCN(Cc5ccc(Cl)cc5)CC4)ncnc32)cc1`: > 85.4 µM (inactive); `O=C(NCC(c1ccco1)N1CCCC1)c1ccc(Cl)c(S(=O)(=O)N2CCc3ccccc32)c1` (configuration not stated): > 28.5 µM (inactive); `COc1ccc(NC(=O)C2Cc3c(-c4ccc5c(c4)OCO5)ccnc3O2)cc1OC` (configuration not stated): > 85.4 µM (inactive). To `CC(=O)c1cn(CCOc2ccccc2C)c2ccccc12` belongs > 85.4 µM (inactive); to `O=C(NCCc1cn2ccccc2n1)c1cc(COc2ccc3ncccc3c2)on1`, 31.1 µM (inactive); to `COc1ccc(N2CCN(c3ncnc4c3[nH]c3ccccc34)CC2)cc1`, > 85.4 µM (inactive). Regarding `CC(C)(C)c1ccc(/C=N/Nc2ccc(C(=O)O)cc2)cc1`, the IC50 was > 85.4 µM (inactive). Next, `Cc1cccc(Cl)c1NC(=O)N1CCCN(c2nc3ccc(Cl)cc3s2)CC1`: > 85.4 µM (inactive). To `Cc1cc(N2CCN(c3nc4ccccc4s3)CC2)n2ncnc2n1` belongs > 85.4 µM (inactive); to `CCC(C)C(NC(=O)CCCNC(=O)CCC(=O)OC1O[C@H]2OC3(C)CC[C@H]4[C@H](C)CCC(C1C)C24OO3)C(=O)O` (some centres not stated), > 85.4 µM (inactive). To `CC(=O)c1c(C)[nH]c(C(=O)OCC(=O)Nc2ccc(Cl)cc2[N+](=O)[O-])c1C` belongs > 85.4 µM (inactive); to `COc1ccc(CCNc2ncnc3c2oc2ccccc23)cc1OC`, 56.8 µM (inactive); to `Cc1cc(S(=O)(=O)NCc2ccncc2)c(C)cc1Br`, > 85.4 µM (inactive). In the case of `OC[C@@H]1CN(Cc2ccc(-c3ccccc3)cc2)C[C@H](n2cnc3c(NCc4ccncc4)ncnc32)O1`, the IC50 was 59.3 µM (inactive). To `CCCCCCn1c(NCC)nc2c1c(=O)n(C)c(=O)n2C` belongs > 85.4 µM (inactive). Next, `Cn1nccc1C(=O)NC1CCCc2c1cnn2-c1ccc(C(C)(C)C)cc1` (configuration not stated): > 85.4 µM (inactive).

For the compound `CC(C)(C)c1ccc(C2CC2C(=O)N/N=C\c2ccc[nH]2)cc1` (configuration not stated), the IC50 was > 85.4 µM (inactive). Next, `CC(=O)c1c(C)[nH]c(C(=O)COc2cc(C)ccc2C(C)C)c1C`: > 85.4 µM (inactive); `COc1ccccc1-n1c(-c2ccccc2)c[n+]2c1CCc1ccccc1-2`: > 85.4 µM (inactive).

On to `O=C(CSc1nnc(Cn2nnc3ccccc32)o1)N(Cc1ccc(Cl)cc1)c1ccccc1`, for which the IC50 is > 85.4 µM (inactive).

Take `CCN(CC)S(=O)(=O)c1cccc(NC(=O)CNc2cccc(S(=O)(=O)N3CCCC3)c2)c1`: the IC50 is > 85.4 µM (inactive). With `Cc1c(C)n(Cc2ccccc2)c2ncnc(Cl)c12`, the IC50 was > 85.4 µM (inactive). Next, `CC(=O)Nc1ccccc1OCC(=O)c1cc(C)n(Cc2cccs2)c1C`: > 85.5 µM (inactive); `Cc1cccc(Nc2nc(-c3c(C)nc4ccccn34)cs2)c1`: 66.3 µM (inactive); `Cc1ccccc1Cn1c(C)nc2ccccc21`: > 85.4 µM (inactive). For `COc1cc2c(cc1OC)C1C(=O)c3ccc4c(c3OC1CO2)CC(C(C)C)O4` (configuration not stated), the IC50 was > 28.5 µM (inactive). To `NC(=O)c1nnn(Cc2cc(Cl)c(C(=O)c3ccc(Cl)cc3)c(Cl)c2)c1N` belongs > 85.4 µM (inactive); to `COc1ccc(-n2nnnc2C(c2cc3ccccc3o2)N2CCC(n3c(=O)[nH]c4ccccc43)CC2)cc1` (configuration not stated), 12.7 µM (inactive). To `Cc1ccc(Cl)cc1S(=O)(=O)N1CCC(C(=O)NC2CCN(Cc3ccccc3)CC2)CC1` belongs > 85.4 µM (inactive). As for `Cc1sc2ncnc(NCCc3ccc(S(N)(=O)=O)cc3)c2c1C`, the IC50 was > 85.4 µM (inactive).

On to `O=C(CSc1cc(Cl)ccc1Cl)N/N=C/c1ccc[nH]1`, for which the IC50 is > 85.4 µM (inactive).

Turning to `COc1ccc(OC)c(CCNC(=O)Cn2nc(C)c3c(C)n(-c4ccc(C)cc4)nc3c2=O)c1`, the IC50 is > 28.5 µM (inactive). To `COc1ccc(CCNc2ncnc3sccc23)cc1OC` belongs > 85.4 µM (inactive); to `O=C(/C=C/c1ccc([N+](=O)[O-])cc1)c1ccccc(=O)c1O`, 13.2 µM (inactive). Next, `Cc1cc2c(=Cc3ccc(N(C)C)cc3)c3ccccc3n2[n+]1C`: 36.5 µM (inactive). Next, `C=CCC1(CC=C)CCCN1C(=O)c1cc(COc2ccc(-n3cncn3)cc2)on1`: > 85.4 µM (inactive); `COc1ccc(C(=O)C2CCN(c3ncnc4sccc34)CC2)cc1`: > 28.4 µM (inactive). For the compound `O=C(c1cccs1)C1CCN(c2ncnc3sccc23)CC1`, the IC50 was > 85.4 µM (inactive).

For `Cc1cc(C)c(CN2CCN(C(=O)Cn3cnc4c(OCc5ccccc5)ncnc43)CC2)c(C)c1`, the IC50 was > 85.3 µM (inactive). Next, `CC[C@H]1CN2CCc3cc(OC)c(OC)cc3C2C[C@@H]1C[C@H]1NCCc2cc(OC)c(OC)cc21` (some centres not stated): > 85.4 µM (inactive); `COc1ccc(CN(C)c2ccc(S(=O)(=O)N3CCN(C)CC3)cc2[N+](=O)[O-])cc1OC`: > 85.4 µM (inactive); `CCCCCCn1ccc(=N)cc1`: > 85.4 µM (inactive). Next, `COc1ccc(NS(=O)(=O)c2cccc(NC(=O)c3ccc(Cl)nc3)c2)cc1`: 73.5 µM (inactive); `Cc1nc2ccccc2n1Cc1ccc(Cl)cc1`: > 85.4 µM (inactive); `CSc1ccccc1OCc1cc(C(=O)N2CCC(c3ccncc3)CC2)no1`: > 85.4 µM (inactive). Next, `Cc1c(C(=O)N2CCN(Cc3ccc4c(c3)OCO4)CC2)sc2ncnc(N3CCN(c4ccccc4F)CC3)c12`: 62.7 µM (inactive).

Turning to `Cc1ccc(-c2cn(-c3ccccc3)c3[n+]2CCCS3)cc1`, the IC50 is > 85.4 µM (inactive). To `Fc1ccc2[nH]c3c(N4CCc5ccccc5C4)ncnc3c2c1` belongs 77.5 µM (inactive); to `CCCCn1c2c(c(=N)c3c1CCC3)CCC2`, > 85.4 µM (inactive); to `COc1cccc(CN(C)C(=O)c2ccc(OCC(=O)Nc3cccc(C(F)(F)F)c3)c(OC)c2)c1`, > 28.5 µM (inactive). As to `Cc1nn(C)c(C)c1NC(=O)COc1ccc(Cl)cc1Br`, the IC50 was > 85.4 µM (inactive).

As for `COc1ccc(NC(=O)COc2ccc(N(C)S(=O)(=O)c3ccc(Cl)cc3)cc2)cc1OC`, the IC50 was > 85.4 µM (inactive). Next, `Cn1nccc1C(=O)NC1CCCc2c1cnn2-c1ccccc1F` (configuration not stated): > 85.4 µM (inactive). Next, `CC1C(OC(=O)CCC(=O)NC(C)(C)CO)O[C@H]2OC3(C)CC[C@H]4[C@H](C)CCC1C24OO3` (some centres not stated): > 85.4 µM (inactive). To `CC(C)OCCCNc1ncnc2c1[nH]c1ccc(F)cc12` belongs > 85.4 µM (inactive).

`CCC(C)NC(=O)CCC(=O)OC1O[C@H]2OC3(C)CC[C@H]4[C@H](C)CCC(C1C)C24OO3` (some centres not stated): the IC50 was > 85.4 µM (inactive). Take `O=C(CSc1nnc(Cn2nnc3ccccc32)o1)N(Cc1ccc(F)cc1)c1ccccc1`: the IC50 was > 85.4 µM (inactive).
